In patent US20210268075A1, “PHARMACEUTICAL COMPOSITION AND METHOD OF TREATMENT USING SERRATIOPEPTIDASE, MANNOSE OR ITS DERIVATIVE, AND OPTIONALLY ANTINFECTION AGENTS” (priority 2020, published 2021):

Tested on: E. Coli ATCC 8739
Experiment: In vitro suppression of bacterial growth from a biofilm on a plastic thread (transmittance of medium at 590 nm)
Format: cell-based
Settings: 7 hours with Solution F/P, higher transmittance = less bacterial growth
Protocol: 1 ml of Stock E. Coli ATCC 8739 (Culture Count 10×10^8 CFU/ml) was diluted to 10 ml with buffered peptone water with NaCl. The 1 ml of resulting culture (10×10^7 CFU/ml) was diluted to 10 ml with buffered peptone water with NaCl to make E. Coli Culture (10×10^6 CFU/ml)
On first day 6 PM, Five (5) sterile test tubes were added with 50 ml of sterile Soybean Casein Digest Medium. These medium were inoculated with 1 ml of E. Coli culture (10×10^6 CFU/ml @ 6 PM. A thin plastic thread (0.1 mm OD) of the same length were suspended from the middle of all 5 test tubes and keep in overnight (17 hours) at 30° C.-35° C. • 2. On second day 11 AM, another Five (5) sterile test tubes were added with 50 ml of sterile Soybean Casein Digest Medium and 500 mg of Glucose. • a. 1 ml of Solution F (D-mannose solution) was added to test tube 1. • b. 1 ml of Solution P (Serrapeptidase solution) was added to test tube 2. • c. 1 ml of Solution F (D-Mannose solution) and 1 ml of Solution P (Serrapeptidase solution) was added to test tube 3.
The thin plastic thread was transferred from old test tube to new test tube on second day 11 AM. All 5 test tubes were kept at 30° C.-35° C. for 7 hours. • 3. On second day 6 PM, another Five (5) sterile test tubes were added with 50 ml of Sterile Soybean Casein Digest Medium. Transfer the thin plastic thread from old test tube to new test tube on second day at 6 PM. […]

SMILES	transmittance of test tube medium at 590 nm (Procedure 1: thin plastic thread (0.1 mm OD), overnight in fresh medium, then 1 ml Solution A^dil for 7 hours at 30-35° C.)	transmittance of test tube medium at 590 nm (Procedure 2: thick plastic thread (0.5 mm OD), then 1 ml Solution A overnight (17 hours) at 30-35° C.)
O=C1CN(/N=C/c2ccc([N+](=O)[O-])o2)C(=O)N1 [A^dil (Diluted Antibiotic), Nitrofurantoin Anhydrous]	8.4	
O=C1CN(/N=C/c2ccc([N+](=O)[O-])o2)C(=O)N1 [A (Antibiotic), Nitrofurantoin Anhydrous]		6.9
